Assay results taken from patent US20240293379A1, “THERAPEUTIC AGENT FOR CANCER OF PATIENT WITH DECREASE IN RB1 FUNCTION USING MYT1 INHIBITOR AND CHEMOTHERAPEUTIC AGENT IN COMBINATION, AND TREATMENT METHOD THEREOF” (Chugai Seiyaku Kabushiki Kaisha, priority 2022, published 2024).
Where two headings read alike, the source gives them in different places.

Tests used:
Assay in all cases: Pemetrexed cytotoxicity test upon suppression of expression of MYT1
Format in all cases: cell-based
[1] = tested on: ChaGo-K-1; conditions: Homo sapiens, ChaGo-K-1 (RB1 mutant), 7 days
Description: (§1) Thereafter, the plates were shaken to transfect each siRNA at a final concentration of 10 nM.
(§2) The −Log 2 value of fold change of IC50 and the maximum value of Bliss score, which are indexes of the combination effect, were calculated by comparing with the actually obtained cell survival curve, and described in Table 6 (see Non Patent Literature 9).

[2] = tested on: NCI-H1666; conditions: Homo sapiens, NCI-H1666 (RB1 wild-type), 7 days
Description: as §1, §2

[3] = tested on: NCI-H596; conditions: Homo sapiens, NCI-H596 (RB1 mutant), 7 days
Description: as §1, §2

[4] = tested on: NCI-H2122; conditions: Homo sapiens, NCI-H2122 (RB1 wild-type), 7 days
Description: as §1, §2

[5] = tested on: HOP-62; conditions: Homo sapiens, HOP-62 (RB1 wild-type), 7 days
Description: as §1, §2

[6] = tested on: NCI-H460; conditions: Homo sapiens, NCI-H460 (RB1 wild-type), 7 days
Description: as §1, §2

[7] = tested on: NCI-H292; conditions: Homo sapiens, NCI-H292 (RB1 wild-type), 7 days
Description: as §1, §2

[8] = tested on: NCI-H358; conditions: Homo sapiens, NCI-H358 (RB1 wild-type), 7 days
Description: as §1, §2

[9] = tested on: NCI-H661; conditions: Homo sapiens, NCI-H661 (RB1 wild-type), 7 days
Description: as §1, §2

[10] = tested on: NCI-H322; conditions: NCI-H322 (RB1 wild-type), 7 days
Description: as §1, §2

[11] = tested on: PC-9; conditions: Homo sapiens, PC-9 (RB1 wild-type), 7 days
Description: as §1, §2

[12] = tested on: A549; conditions: Homo sapiens, A549 (RB1 wild-type), 7 days
Description: as §1, §2

[13] = tested on: NCI-H2110; conditions: NCI-H2110 (RB1 mutant), 7 days
Description: as §1, §2

[14] = tested on: EKVX; conditions: Homo sapiens, EKVX (RB1 wild-type), 7 days
Description: as §1, §2

[15] = tested on: NCI-H1993; conditions: Homo sapiens, NCI-H1993 (RB1 wild-type), 7 days
Description: as §1, §2

[16] = tested on: NCI-H441; conditions: Homo sapiens, NCI-H441 (RB1 wild-type), 7 days
Description: as §1, §2

[17] = tested on: NCI-H1155; conditions: Homo sapiens, NCI-H1155 (RB1 mutant), 7 days
Description: as §1, §2

[18] = tested on: ABC-1; conditions: Homo sapiens, ABC-1 (RB1 wild-type), 7 days
Description: as §1, §2

[19] = read-out: IC50 of pemetrexed, MYT1 #16, MYT1 siRNA #16 10 nM
[20] = read-out: IC50 of pemetrexed, MYT1 #18, MYT1 siRNA #18 10 nM
[21] = read-out: IC50 of pemetrexed, NT, negative control siRNA 10 nM

## Nc1nc2[nH]cc(CCc3ccc(C(=O)N[C@@H](CCC(=O)O)C(=O)O)cc3)c2c(=O)[nH]1 [pemetrexed]
[1]; [19]
  IC50: 0.133 µM
[1]; [20]
  IC50: 0.192 µM
[1]; [21]
  IC50: 0.914 µM
[2]; [19]
  IC50: 0.473 µM
[2]; [20]
  IC50: 0.291 µM
[2]; [21]
  IC50: 0.619 µM
[3]; [19]
  IC50: 0.00701 µM
[3]; [20]
  IC50: 0.021 µM
[3]; [21]
  IC50: 0.385 µM
[4]; [19]
  IC50: 0.0135 µM
[4]; [20]
  IC50: 0.0472 µM
[4]; [21]
  IC50: 0.159 µM
[5]; [19]
  IC50: 0.0981 µM
[5]; [20]
  IC50: 0.0919 µM
[5]; [21]
  IC50: 0.175 µM
[6]; [19]
  IC50: 0.465 µM
[6]; [20]
  IC50: 0.563 µM
[6]; [21]
  IC50: 0.667 µM
[7]; [19]
  IC50: 0.0711 µM
[7]; [20]
  IC50: 0.187 µM
[7]; [21]
  IC50: 0.391 µM
[8]; [19]
  IC50: 0.531 µM
[8]; [20]
  IC50: 0.333 µM
[8]; [21]
  IC50: 0.986 µM
[9]; [19]
  IC50: 0.0457 µM
[9]; [20]
  IC50: 0.129 µM
[9]; [21]
  IC50: 0.315 µM
[10]; [19]
  IC50: 1.03 µM
[10]; [20]
  IC50: 0.805 µM
[10]; [21]
  IC50: 1.6 µM
[11]; [19]
  IC50: 0.0329 µM
[11]; [20]
  IC50: 0.0777 µM
[11]; [21]
  IC50: 0.145 µM
[12]; [19]
  IC50: 1.53 µM
[12]; [20]
  IC50: 1.95 µM
[12]; [21]
  IC50: 2.85 µM
[13]; [19]
  IC50: 0.0105 µM
[13]; [20]
  IC50: 0.0414 µM
[13]; [21]
  IC50: 0.227 µM
[14]; [19]
  IC50: 0.166 µM
[14]; [20]
  IC50: 0.263 µM
[14]; [21]
  IC50: 0.404 µM
[15]; [19]
  IC50: 0.0246 µM
[15]; [20]
  IC50: 0.106 µM
[15]; [21]
  IC50: 0.181 µM
[16]; [19]
  IC50: 0.0956 µM
[16]; [20]
  IC50: 0.865 µM
[16]; [21]
  IC50: 0.884 µM
[17]; [19]
  IC50: 0.673 µM
[17]; [20]
  IC50: 1.65 µM
[17]; [21]
  IC50: 9.84 µM
[18]; [19]
  IC50: 0.363 µM
[18]; [20]
  IC50: 0.313 µM
[18]; [21]
  IC50: 0.973 µM
